The source of these data is paper PMC8448693, “Effects of co-formulants on the absorption and secretion of active substances in plant protection products in vitro” (Archives of Toxicology, 2021).

One data set has as its system Caco-2 cells. Briefly: WST-1 cytotoxicity assay in Caco-2 cells, 24 h exposure. The data set is classed as cell-based. The note with it: WST-1, Caco-2, 24 h; tested range ≤ 960 mg/L. The protocol: Caco-2 cells (ECACC: 86010202) were purchased from the European Collection of Authenticated Cell Cultures (Salisbury, UK). […] The cells were cultivated at 37 °C, 5% CO2 and […] atmosphere in a cell culture incubator. They were passaged when reaching 80–90% confluence every 2 to 3 days. Passaging was performed at maximum ten times and by aspirating the medium, washing with phosphate-buffered saline (PBS) and incubating with trypsin–EDTA (0.05%) in Dulbecco’s phosphate-buffered saline (Capricorn Scientific GmbH, Ebsdorfergrund, Germany) at 37 °C for 3–5 min.
Cytotoxicity was first analysed by water soluble tetrazolium assay (WST-1; Roche, Berlin, Germany), followed by neutral red uptake (NRU) assay. Caco-2 cells were seeded in 96-well plates at a density of 5000 cells per well and differentiated for three weeks. The cells were incubated with both active substances and all of the above-mentioned co-formulants individually, with a combination of the active substances and the respective surfactants in a ratio in accordance with the products, as well as with the respective products, containing all co-formulants, for 24 h. Eight different concentrations were investigated in culture medium with a final concentration of 0.4% DMSO. Triton X-100 (0.1%) served as a positive control. After 24 h incubation a WST-1 assay was performed according to the protocol provided by the supplier.
For orientation: Formazan colour is commonly taken as a measure of viable cells.

Data set [1] relates to Caco-2 cell membrane fluidity. The experiment in a line: DPH fluorescence anisotropy (membrane fluidity) in Caco-2 cells. The data set is classed as cell-based. The note with it: Caco-2, vs untreated control. How it is done:
Furthermore, the active ingredients and the products were investigated at sub-cytotoxic concentrations to rule out any impact of the active ingredients. Briefly, Caco-2 cells were cultivated in six-well plates for 21 days and detached on day 21 using 1 mL Accutase Cell Detachment Solution (ACC-1B, Capricorn Scientific GmbH, Ebsdorfergrund, Germany) per well. After incubation for 20-30 min at room temperature, detached cells were separated by centrifugation. […] Fluorescence anisotropy measurements were performed at 37 °C using a dual monochromator fluorescence spectrometer (model LS 55, PerkinElmer, Rodgau, Germany) fitted with polarizing filters and a stirred cell. Samples were excited with 355 nm vertical polarised light and emission was measured at 430 nm in vertical and horizontal direction. Since fluorescence anisotropy is inversely related to membrane fluidity, decreased DPH fluorescence anisotropy implies an increased membrane fluidity. Three independent experiments were performed (n = 3). The fluorescence anisotropy (r) is defined by following equation: […]: fluorescence intensity measured in direction parallel to the polarised exciting light.IVH: fluorescence intensity measured in direction perpendicular to the polarised exciting light.G: IVH/IHH; correction factor for the instrument.
A general note: Fluorescence polarisation rises when a labelled molecule tumbles more slowly, as on binding a larger partner.

Another data set addresses recombinant human Pgp (Homo sapiens, UniProt P08183). Briefly: Pgp ATPase assay (Pgp-Glo assay system). The protocol: This study focused on potential effects on Pgp transporters.
Pgp ATPase activity modulation was determined using the Pgp-Glo assay system (Promega, Madison, WI, USA) following the manufacturer's user protocol. Briefly, 25 µg of recombinant human Pgp membrane in Pgp-Glo assay buffer was incubated with different concentrations of each active substance or co-formulant in combination with 200 µM verapamil at 37 °C for 5 min. […] 5 mM MgATP was added to each well and 96-well plates were incubated at 37 °C for 40 min to initiate the reaction. Luminescence of the remaining, unmetabolised ATP was initiated by adding 50 µl of 25 mM ATP detection reagent. After briefly shaking on a plate shaker, 96-well plates were incubated at room temperature for 20 min. The luciferase generated luminescence signal was measured on an Infinite M200 PRO plate reader (Tecan, Maennedorf, Swiss). All measurements were corrected by subtraction of Na3VO4-treated signals (non Pgp ATPase activity) and represented as changes in luminescence signals (ΔRLU). […] Changes in luminescence (ΔRLU) caused by the co-formulants and abamectin incubated with verapamil were compared to ΔRLU caused by verapamil. ΔRLU values of the active ingredients (without verapamil) were compared to ΔRLU values of untreated samples (basal ΔRLU). Each condition was measured in four replicates (n = 4).

Sequence of recombinant human Pgp (P08183 whole entry): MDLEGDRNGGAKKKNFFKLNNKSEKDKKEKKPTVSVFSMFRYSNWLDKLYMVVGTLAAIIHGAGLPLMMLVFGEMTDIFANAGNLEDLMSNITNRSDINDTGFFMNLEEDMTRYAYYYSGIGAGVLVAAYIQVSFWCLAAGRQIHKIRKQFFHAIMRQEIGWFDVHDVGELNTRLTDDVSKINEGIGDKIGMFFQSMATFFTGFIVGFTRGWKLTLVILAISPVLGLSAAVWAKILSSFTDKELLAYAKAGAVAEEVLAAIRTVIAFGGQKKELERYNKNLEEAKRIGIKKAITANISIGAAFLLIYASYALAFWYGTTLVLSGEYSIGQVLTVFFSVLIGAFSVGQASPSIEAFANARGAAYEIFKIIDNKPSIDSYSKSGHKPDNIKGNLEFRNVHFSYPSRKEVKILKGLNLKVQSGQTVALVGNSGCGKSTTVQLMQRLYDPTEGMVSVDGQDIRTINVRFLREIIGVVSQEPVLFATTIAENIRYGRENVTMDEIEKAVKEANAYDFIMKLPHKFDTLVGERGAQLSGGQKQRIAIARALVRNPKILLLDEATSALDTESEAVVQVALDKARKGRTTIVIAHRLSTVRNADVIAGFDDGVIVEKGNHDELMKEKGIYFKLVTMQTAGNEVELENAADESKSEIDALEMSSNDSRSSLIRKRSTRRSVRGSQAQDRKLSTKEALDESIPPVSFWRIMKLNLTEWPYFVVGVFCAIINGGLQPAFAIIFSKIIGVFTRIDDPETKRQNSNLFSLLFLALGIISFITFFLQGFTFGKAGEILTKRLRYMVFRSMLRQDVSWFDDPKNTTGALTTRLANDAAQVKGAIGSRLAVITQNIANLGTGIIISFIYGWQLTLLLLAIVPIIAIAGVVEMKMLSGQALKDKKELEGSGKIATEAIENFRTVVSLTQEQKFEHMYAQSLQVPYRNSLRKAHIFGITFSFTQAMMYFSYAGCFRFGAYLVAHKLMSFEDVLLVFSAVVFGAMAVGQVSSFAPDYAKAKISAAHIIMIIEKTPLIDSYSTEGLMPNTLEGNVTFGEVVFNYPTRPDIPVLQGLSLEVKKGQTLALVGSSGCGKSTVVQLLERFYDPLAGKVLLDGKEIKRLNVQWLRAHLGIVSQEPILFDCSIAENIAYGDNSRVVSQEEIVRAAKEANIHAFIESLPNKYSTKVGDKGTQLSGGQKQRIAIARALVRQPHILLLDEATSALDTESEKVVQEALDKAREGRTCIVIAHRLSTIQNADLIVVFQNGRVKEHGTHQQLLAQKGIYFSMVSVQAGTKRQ

Regarding `CCCCCCC(C)OC(=O)COc1nc(F)c(Cl)c(N)c1Cl` (centres unmarked) [fluroxypyr-meptyl], in the data set with Caco-2 cells, the “cytotoxic effects over the tested concentration range” value is “did not show significant cytotoxic effects”. In data set [1] (64 mg/L), the “impact on the fluorescence anisotropy” value was “did not show a statistically significant impact”.
As for abamectin, the “stimulation of Pgp ATPase activity compared to the untreated control” value at recombinant human Pgp (1.25 mg/L (lowest concentration), without verapamil) is on record as “approximately 250%”. Further, at recombinant human Pgp (verapamil-stimulated (200 µM) Pgp ATPase activity, 2.5–64 mg/L, concentration-dependent inhibition), the “maximum decreased ΔRLU value compared to the verapamil control” value came to 30%. Further, the “impact on the fluorescence anisotropy” value in data set [1] (10 mg/L) is recorded as “did not show a statistically significant impact”.
